From ChEMBL document CHEMBL5465560, “Selectivity Literature for EUbOPEN Chemogenomic Library” (2024) come the findings set out here.

Type in all cases: cell-based
Assay [1] has as its target T1, Mitogen-activated protein kinase kinase kinase 19 (Homo sapiens) (UniProt Q56UN5).
T1 sequence (whole entry): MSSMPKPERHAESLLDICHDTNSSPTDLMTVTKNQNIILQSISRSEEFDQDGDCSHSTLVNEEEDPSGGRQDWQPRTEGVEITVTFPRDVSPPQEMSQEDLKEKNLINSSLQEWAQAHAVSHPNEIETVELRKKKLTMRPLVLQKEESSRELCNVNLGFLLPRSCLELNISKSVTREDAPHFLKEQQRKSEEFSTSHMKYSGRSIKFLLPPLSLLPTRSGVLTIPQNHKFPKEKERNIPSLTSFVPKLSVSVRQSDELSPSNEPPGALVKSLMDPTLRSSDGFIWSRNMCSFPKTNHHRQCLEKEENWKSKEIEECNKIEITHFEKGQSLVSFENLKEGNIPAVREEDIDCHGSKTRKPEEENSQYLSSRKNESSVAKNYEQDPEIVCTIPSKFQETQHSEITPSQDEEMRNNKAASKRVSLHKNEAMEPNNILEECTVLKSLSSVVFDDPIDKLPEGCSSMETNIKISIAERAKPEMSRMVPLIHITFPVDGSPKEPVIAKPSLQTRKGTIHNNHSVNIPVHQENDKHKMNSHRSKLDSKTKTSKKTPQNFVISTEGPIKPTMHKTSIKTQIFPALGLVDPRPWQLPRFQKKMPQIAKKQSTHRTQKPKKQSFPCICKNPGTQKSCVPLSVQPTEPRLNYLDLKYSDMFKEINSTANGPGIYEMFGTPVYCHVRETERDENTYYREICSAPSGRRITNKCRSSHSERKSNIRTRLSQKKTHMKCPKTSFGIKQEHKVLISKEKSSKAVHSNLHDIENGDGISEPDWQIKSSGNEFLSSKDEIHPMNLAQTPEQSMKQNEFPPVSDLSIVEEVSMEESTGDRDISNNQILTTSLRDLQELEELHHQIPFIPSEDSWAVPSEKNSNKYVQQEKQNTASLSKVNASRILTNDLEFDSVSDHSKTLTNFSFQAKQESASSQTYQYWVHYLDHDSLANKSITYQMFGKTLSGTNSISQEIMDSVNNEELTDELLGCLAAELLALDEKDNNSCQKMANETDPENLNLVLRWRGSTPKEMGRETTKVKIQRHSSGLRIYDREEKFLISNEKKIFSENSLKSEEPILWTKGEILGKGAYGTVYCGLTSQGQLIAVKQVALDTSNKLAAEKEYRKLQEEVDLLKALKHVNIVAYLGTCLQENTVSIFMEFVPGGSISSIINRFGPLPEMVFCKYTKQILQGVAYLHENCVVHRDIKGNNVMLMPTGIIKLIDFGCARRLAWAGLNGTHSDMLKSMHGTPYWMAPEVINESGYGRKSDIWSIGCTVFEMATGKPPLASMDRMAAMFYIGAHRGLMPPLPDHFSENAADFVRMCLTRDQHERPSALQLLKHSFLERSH
Put plainly: Selectivity interaction (Ambit KINOMEscan and KiNATiv profiling in Jurkat cells) EUB0000090b MAP3K19. As to conditions: at 1 µM.

In assay [2] the target is T2, Serine/threonine-protein kinase tousled-like 1 (Homo sapiens) (UniProt Q9UKI8).
T2 sequence (whole entry): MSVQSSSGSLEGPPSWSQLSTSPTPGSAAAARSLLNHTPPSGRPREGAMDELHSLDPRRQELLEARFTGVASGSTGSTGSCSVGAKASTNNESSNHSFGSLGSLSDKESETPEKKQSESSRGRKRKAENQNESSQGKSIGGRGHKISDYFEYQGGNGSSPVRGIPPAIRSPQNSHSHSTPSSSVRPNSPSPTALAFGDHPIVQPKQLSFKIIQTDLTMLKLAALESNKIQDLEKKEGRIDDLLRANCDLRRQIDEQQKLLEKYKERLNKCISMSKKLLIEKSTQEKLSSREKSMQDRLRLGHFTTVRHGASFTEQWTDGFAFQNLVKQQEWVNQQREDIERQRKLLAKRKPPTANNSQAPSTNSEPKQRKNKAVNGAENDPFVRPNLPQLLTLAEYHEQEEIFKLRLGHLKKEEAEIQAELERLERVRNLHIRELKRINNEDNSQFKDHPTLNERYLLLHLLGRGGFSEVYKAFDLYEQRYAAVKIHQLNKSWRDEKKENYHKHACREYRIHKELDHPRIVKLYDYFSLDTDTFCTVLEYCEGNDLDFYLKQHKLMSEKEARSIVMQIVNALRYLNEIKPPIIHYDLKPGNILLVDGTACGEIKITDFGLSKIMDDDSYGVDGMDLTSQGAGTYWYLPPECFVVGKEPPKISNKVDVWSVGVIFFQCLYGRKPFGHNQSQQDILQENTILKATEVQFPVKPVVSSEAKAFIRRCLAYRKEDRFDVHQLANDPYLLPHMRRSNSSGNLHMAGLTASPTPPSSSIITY
Put plainly: Selectivity interaction (ActivX KiNativ screen (ex vivo kinase selectivity in human PBMCs)) EUB0001619a TLK1. Conditions: PBMC, at 1 µM.

Assay [3] addresses T3, Serine/threonine-protein kinase 3 (Homo sapiens) (UniProt Q13188).
T3 sequence (whole entry): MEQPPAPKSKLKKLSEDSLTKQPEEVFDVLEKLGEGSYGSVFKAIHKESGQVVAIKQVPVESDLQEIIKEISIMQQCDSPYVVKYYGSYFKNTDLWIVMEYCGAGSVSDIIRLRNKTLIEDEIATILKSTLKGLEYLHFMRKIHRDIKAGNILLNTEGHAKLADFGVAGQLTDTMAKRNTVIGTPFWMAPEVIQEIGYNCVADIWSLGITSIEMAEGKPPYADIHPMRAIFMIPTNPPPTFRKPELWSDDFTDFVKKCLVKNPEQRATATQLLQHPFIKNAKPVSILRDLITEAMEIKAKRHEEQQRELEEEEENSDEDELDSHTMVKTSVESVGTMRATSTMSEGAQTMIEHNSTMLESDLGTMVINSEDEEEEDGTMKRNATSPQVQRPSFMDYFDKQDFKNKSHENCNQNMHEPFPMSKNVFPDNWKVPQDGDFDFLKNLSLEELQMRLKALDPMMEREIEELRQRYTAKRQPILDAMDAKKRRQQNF
Put plainly: Selectivity interaction (Kinase panel (KiNativ target engagement assay in Jurkat cells)) EUB0001635a STK3. Conditions: Selectivity number of off-targets 0.0, Selectivity number of targets 233.0, Source Knowledge https://www.sciencedirect.com/science/article/pii/S2451945619300674?via%3Dihub, at 1 µM.

SMILES strings stand for the structures.

In turn, `CN(C)C/C=C/C(=O)Nc1ccc(C(=O)N2CCCC(Nc3ncc(Cl)c(-c4c[nH]c5ccccc45)n3)C2)cc1` (stereo not drawn) yielded a % of control in assay [1] of 98%.
Take `N#Cc1cccc(-c2c[nH]c3ncnc(N4CCOCC4)c23)c1`: in assay [2], the % of inhibition was -4%.
For the compound `C=CC(=O)Nc1ccc(C(=O)Nc2[nH]nc3c2CN(C(=O)N[C@H](CN(C)C)c2ccccc2)C3(C)C)cc1`, the % of engagement in assay [3] turned out to be 1%.
